According to publication PMC5800995 (Biochemical pharmacology, 2018):

Target: human D2LR E95^2.65A (Homo sapiens, UniProt P14416, E95A)
Assay: ERK1/2 phosphorylation, E95^2.65A
Assay type: cell-based
Settings: for Kb: read-out: KB Function (pERK1/2); for Schild slope: dopamine-mediated pERK1/2, competitive model

human D2LR E95^2.65A, sequence (P14416 whole entry E95A): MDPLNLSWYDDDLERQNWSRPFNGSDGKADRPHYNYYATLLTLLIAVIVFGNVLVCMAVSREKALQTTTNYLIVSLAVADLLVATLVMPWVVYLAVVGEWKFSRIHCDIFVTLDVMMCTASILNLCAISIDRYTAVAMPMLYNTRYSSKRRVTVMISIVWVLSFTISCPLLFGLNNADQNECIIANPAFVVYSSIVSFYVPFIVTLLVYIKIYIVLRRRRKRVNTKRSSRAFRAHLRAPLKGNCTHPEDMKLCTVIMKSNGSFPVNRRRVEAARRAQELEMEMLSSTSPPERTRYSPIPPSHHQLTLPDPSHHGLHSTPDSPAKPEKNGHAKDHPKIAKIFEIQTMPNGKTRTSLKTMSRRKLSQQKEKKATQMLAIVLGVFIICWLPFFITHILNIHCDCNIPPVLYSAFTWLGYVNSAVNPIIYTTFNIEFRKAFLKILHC

Structure (SMILES)	Logαβ (net cooperativity with dopamine)	fold loss in functional affinity vs WT [fold]	pKB Function (pERK1/2)	αβ (net cooperativity with dopamine)	Kb [nM]	Schild slope	fold loss in negative cooperativity with dopamine vs WT (pERK1/2) [fold]
N#Cc1ccc2c(c1)CN(CCC1CCC(NC(=O)c3cc4cccnc4[nH]3)CC1)CC2 (stereo not drawn) [MIPS1588]	−1.12 ± 0.16	27	5.90 ± 0.20	0.08	1260	–	–
O=C(N[C@H]1CC[C@H](CCN2CCc3ccc(Br)cc3C2)CC1)c1cc2ccccc2[nH]1 [MIPS1556]	–	–	5.96 ± 0.12	–	–	1.08 ± 0.09	–
N#Cc1ccc2c(c1)CN(CCC1CCC(NC(=O)c3nc4ccccc4o3)CC1)CC2 (stereo not drawn) [MIPS1528]	–	–	5.92 ± 0.07	–	1200	1.68 ± 0.10	–
O=C(N[C@H]1CC[C@H](CCN2CCc3ccccc3C2)CC1)c1cc2ccccc2[nH]1 [MIPS1278]	−0.30 ± 0.20	709	4.21 ± 0.15	0.50	61700	–	6
N#Cc1ccc2c(c1)CN(CCC1CCC(NC(=O)c3ccc[nH]3)CC1)CC2 (stereo not drawn) [MIPS1576]	−1.24 ± 0.10	24	7.02 ± 0.15	0.06	95	–	–
